# Test results: article PMC3502511, “Inhibition of the Prokaryotic Pentameric Ligand-Gated Ion Channel ELIC by Divalent Cations” (PLoS Biology, 2012)
# Biological target: T1, ELIC D158A (Dickeya chrysanthemi, UniProt P0C7B7, D158A/INS163G)
# T1 construct: expressed in transfected cells; host or cells: X. laevis oocytes
# Assay: Two-electrode voltage clamp, ELIC D158A in oocytes
# Format: cell-based, Erwinia chrysanthemi
# Details: agonist cysteamine
# Experimental: Constructs containing the gene of either the WT or mutant channels preceded by the signal sequence of the chicken α7nAchR were cloned into the pTLN vector for expression in X. laevis oocytes. After linearization of the plasmid DNA by MluI, capped complementary RNA was transcribed with the mMessage mMachine kit (Ambion) and purified with the RNeasy kit (Qiagen). For expression, 1–50 ng of RNA was injected into defolliculated oocytes. Two-electrode voltage clamp measurements were performed 1 d after injection at 20°C (OC-725B, Warner Instrument Corp.). Currents were recorded in bath solutions containing 10 mM HEPES (pH 7), 130 mM NaCl, and the indicated concentrations of cysteamine and divalent cations. In case of solutions containing Zn^2+, cysteamine was replaced by propylamine. The membrane potential in all dose–response measurements was set to −40 mV. As ELIC is permeable to divalent cations, we tested if endogenous calcium-activated chloride channels affected our measurements. To chelate intracellular calcium ions, the oocytes were incubated for 15 to 30 min in bath solutions lacking divalent ions but containing 10 µM BAPTA-AM.
structure (smiles),measurement,setting,value
NCCS [cysteamine],EC50,Ca^2+ 0 mM,1.78 mM
same,EC50,Ca^2+ 1 mM,1.79 mM
same,EC50,Ca^2+ 5 mM,3.33 mM
same,EC50,Ca^2+ 10 mM,5.43 mM
same,EC50,Ca^2+ 20 mM,9.38 mM
